Measured values as given in patent US20090004683A1, “Indicator Agent for Noninflammatory Stress Response and Use Thereof” (priority 2004, published 2009).

Tests used:
[1] = test system: Primary culture human skin keratinocytes; assay: IL-18 release from keratinocytes with UV-B ray irradiation; assay type: cell-based; settings: 100 mJ UV-B, SOD 1-20 U/ml or water-soluble vitamin E 100 nM-10 mM/ml
Procedure: Primary culture human skin keratinocytes (keratinocytes: purchased from CAMBREX Company) were cultured in a basal medium for keratinocytes contained in petri dishes for cell culture 6 cm in diameter at 1.0-2.0×10^6/dish. This was irradiated with 100 mJ of ultraviolet B rays (UV-B rays), after which the cells were cultured for 1 hour, after which the medium was collected, and the concentration of IL-18 protein in the medium was measured. Also, after the UV-B ray treatment, the cells were cultured in a medium containing SOD (1, 2.5, 5, 10, 20 U/ml), which is an active oxygen eliminator, or water-soluble vitamin E (100 nM, 1, 2.5, 5, 10 mM/ml), and the concentration of IL-18 protein in the medium was measured. In the keratinocytes, the activation and release of IL-18 by the active oxygen molecular species were observed. Furthermore, these were suppressed by SOD, which is an active oxygen eliminator, or by vitamin E, which neutralizes active oxygen, dose-dependently (FIGS. 7C and 7D).

Brain astrocytes = assay: IL-18 release from astrocytes with paraquat stimulation; assay type: cell-based, mouse
Procedure: Brain astrocytes isolated from the mouse neonatal brain by the method of Yang et al. (Yang P, Hernandez M R. Brain Res Brain Res Protoc. 2003 October; 12(2):67-76) were prepared at 1.5-2.0×10^6/ml. This was cultured in Dulbecco's minimum essential medium containing 100 nM of paraquat, which is an active oxygen generator, for 1 hour, after which the medium was exchanged with a paraquat-free medium. The cells were further cultured for 3 hours, after which the medium was collected, and the concentration of IL-18 protein in the medium was measured.

[2] = test system: Primary culture human skin keratinocytes; assay: IL-18 release from keratinocytes with paraquat stimulation; assay type: cell-based
Procedure: Primary culture human skin keratinocytes (keratinocytes) were cultured in a basal medium for keratinocytes contained in petri dishes for cell culture 6 cm in diameter at 1.0-2.0×10^6/dish. This was cultured in the aforementioned medium containing 1 μM of paraquat, which is an active oxygen generator, for 15 minutes, after which the medium was exchanged with a paraquat-free medium, and the cells were further cultured for 1 hour, after which the medium was collected, and the concentration of IL-18 protein in the medium was measured.

Brain microglia = assay: IL-18 release from microglia with paraquat stimulation; assay type: cell-based, mouse
Procedure: Brain microglia isolated from the mouse neonatal brain by the method of Hassan et al. (Hassan N F, Rifat S, Campbell D E, McCawley L J, Douglas S D. J. Leukoc Biol. 1991 July; 50(1):86-92) were cultured at 1.5-2.0×10^6/ml. This was cultured in Dulbecco's minimum essential medium containing 100 nM of paraquat, which is an active oxygen generator, for 1 hour, after which the medium was exchanged with a paraquat-free medium. After further cultivation for 3 hours, the medium was collected, and the concentration of IL-18 protein in the medium was measured.

[3] = test system: Primary culture human renal proximal tubular epithelial cells; assay: IL-18 release from renal tubular epithelial cells with paraquat stimulation; assay type: cell-based
Procedure: Primary culture human renal proximal tubular epithelial cells (purchased from CAMBREX Company) were cultured in a basal medium for renal tubular cells: contents 10 μg/ml hEGF (recombinant human epithelial cell growth factor) 0.5 ml, 5 mg/ml insulin 0.5 ml, 0.5 mg/ml hydrocortisone 0.5 ml, FBS (fetal bovine serum) 2.5 ml, 0.5 mg/ml epinephrine 0.5 ml, 6.5 μg/ml triiodothyronine 0.5 ml, 10 mg/ml transferrin 0.5 ml, 50 mg/ml gentamycin, 50 μg/ml amphotericin-B 0.5 ml), in petri dishes for cell culture 6 cm in diameter at 1.0-2.0×10^6/dish. This was cultured in the aforementioned medium containing 100 nM of paraquat, which is an active oxygen generator, for 15 minutes, after which the medium was exchanged with the same but paraquat-free medium. After the cells were further cultured for 1 hour, the medium was collected, and the concentration of IL-18 protein in the medium was measured.

Synovial membrane tissue = assay: IL-18 release from synovial membrane tissue with paraquat stimulation; assay type: cell-based, human; settings: synovial membrane tissue of articular rheumatism patient, 100 nM paraquat 15 minutes; SOD 1-20 U/ml
Procedure: Synovial membrane tissue collected from the articular synovial membrane at a lesion site of an articular rheumatism patient was subjected to tissue culture in an RPMI-1640 medium containing 10% fetal bovine serum by the method of Tanaka et al. (Tanaka M, Harigai M, Kawaguchi Y, Ohta S, Sugiura T, Takagi K, Ohsako-Higami S, Fukasawa C, Hara M, Kamatani N., J. Rheumatol. 2001 August; 28(8):1779-87). The medium was exchanged with the aforementioned medium containing 100 nM of paraquat, which is an active oxygen generator, and the cells were cultured for 15 minutes, after which the medium was exchanged with a paraquat-free medium, and the cells were further cultured for 1 hour, after which the medium was collected, and the concentration of IL-18 protein in the medium was measured.

Abdominal macrophages = assay: IL-18 release from macrophages with paraquat stimulation; assay type: cell-based, mouse; settings: 100 nM paraquat 15 minutes, SOD 1-20 U/ml
Procedure: Abdominal macrophages isolated from mice by the method of Hamilton et al. (Hamilton T A, Weiel J E, Adams D O., J. Immunol. 1984 May; 132(5):2285-90) were cultured in Dulbecco's minimum essential medium at 1.0-2.0×10^5/dish. The medium was exchanged with the aforementioned medium containing 100 nM of paraquat, which is an active oxygen generator, and the cells were cultured for 15 minutes, after which the medium was exchanged with a paraquat-free medium, and the cells were further cultured for 3 hours, after which the medium was collected, and the concentration of IL-18 protein in the medium was measured.

caspase-1 [4] = assay: Procaspase-1 in the adrenal after ACTH administration (Western blotting); assay type: in vivo, mouse; settings: FIG. 2A lane 2
Procedure: (§1) The anti-ACTH antiserum (50 μl, 1:1), dexamethasone (1 ng/50 μl PBS(−)) or the anti-IL-18 antibody (50 μl, 1:1) was administered intraperitoneally to each mouse; after 10 minutes elapsed, the animal was kept in a restraint tube for 6 hours. Synthetic ACTH (250 μg/50 μl PBS(−)) was injected to the left leg; after 6 hours elapsed, the mice were subjected to the experiment.
(§2) Western blot analysis of IL-18 and phosphorylated P38MAP kinase in adrenal tissue was performed as described below. The adrenal tissue was homogenized in an immunoprecipitation (IP) buffer solution (50 mM Tris pH 7.4, 150 mM NaCl, 0.5% NP-40 and 0.5% sodium deoxycholate) containing a protease inhibitor mixture (manufactured by Roche Diagnostics) using a Polytron homogenizer. […] The aforementioned membrane was incubated with an antibody (IL-18, phosphorylated (Thr180/Tyr182) P38 MAP kinase, caspase-1 or caspase-11), and the reacted protein was detected using an ECL plus system (manufactured by Amersham biosciences). Procaspase-11 and activated P38 MAP kinase were quantified using a Science Lab 99 image analysis system (manufactured by Fujifilm).

IL-18 [5] = assay: IL-18 in plasma and adrenal after administration of synthetic ACTH; assay type: in vivo, mouse; settings: 250 μg injected to the left leg, after 6 hours, no restraint
Procedure: (§3) After restraint, each mouse was anesthetized with diethyl ether, and blood was drawn into an EDTA-containing tube. Plasma was separated by centrifugation at 4° C. and 10000×g for 10 minutes, and stored at −80° C. IL-18 and IL-6 were analyzed by ELISA using Quantikine™ immunoassay kit (R&D Systems) and OptEIA™ (BD-Pharmingen), respectively.
as §1

[6] = test system: phosphorylated P38MAP kinase; assay: Immunohistochemistry of phosphorylated P38MAP kinase in adrenal cortex of stress-loaded mice; assay type: in vivo, mouse; settings: FIG. 3F
Procedure: The adrenal was fixed in formalin, embedded in paraffin, and cut into 4-μm sections. The aforementioned tissue sections were incubated with an antibody (P38 MAP kinase, caspase-11, caspase-1 (these three were diluted 200 fold) or IL-18 (diluted 400 fold)). Using a horseradish peroxidase-conjugated secondary antibody (manufactured by Santa Cruz) and diaminobenzidin (DBA), color development was performed. For control, sections without the primary antibody and sections derived from a mouse without stress were used.

caspase-1 [7] = target: T1, caspase-1 (Mus musculus, UniProt P29452); assay: Caspase-1 activity in the adrenal of restraint stress mice (Ac-YVAD-MCA fluorescent substrate); assay type: in vivo; settings: given i.p. during restraint
T1 construct: from tissue; host or cells: mouse adrenal (homogenate)
T1 sequence (P29452 119-296 limits assumed): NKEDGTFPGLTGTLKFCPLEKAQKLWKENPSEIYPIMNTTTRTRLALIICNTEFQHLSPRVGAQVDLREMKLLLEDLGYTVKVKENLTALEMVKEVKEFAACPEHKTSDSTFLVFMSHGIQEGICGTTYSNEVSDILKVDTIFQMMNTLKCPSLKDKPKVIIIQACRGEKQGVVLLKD
T1 sequence (P29452 315-402 limits assumed): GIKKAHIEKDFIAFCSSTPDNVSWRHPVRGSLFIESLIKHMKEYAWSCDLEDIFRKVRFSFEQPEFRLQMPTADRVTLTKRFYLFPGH
Procedure: (§4) Each mouse was kept in a restrainer for 1 hour, and Ac-YVAD-CHO (200 μM/50 μl PBS(−)), Z-FA-fmk (100 μM/50 μl PBS(−)) and SB-203580 (100 μg/50 μl PBS(−) per mouse) were administered intraperitoneally. 1 and 3 hours after the start of restraint, SOD-1 (20 U) and DPI (30 μg) were administered intraperitoneally to the mouse, and samples were analyzed by Western blotting.
Caspase-1 activity in the adrenal was measured using a caspase assay kit (manufactured by BD-Pharmingen). Describing briefly, a homogenate of adrenal tissue was incubated with Ac-YVAD-MCA (acetyl-L-tyrosyl-L-valyl-L-alanyl-L-aspartic acid 4-methyl-coumaryl-7-amide), which is a fluorescent substrate for caspase-1, and the MCA leaving from the aforementioned substrate was measured using a fluorescence plate reader (excitation wavelength 380 nm, irradiation wavelength 420-460 nm).

IL-18 [8] = assay: Plasma IL-18 level in restraint stress mice (ELISA); assay type: in vivo, mouse; settings: given i.p. during restraint (Ac-YVAD-CHO 200 μM/50 μl, Z-FA-fmk 100 μM/50 μl, SB-203580 100 μg, SOD-1 20 U, DPI 30 μg)
Procedure: (§5) For restraint stress, each mouse was kept in a restrainer (a round plastic tube 27 mm in diameter) for 1, 3 or 6 hours, and IL-18 levels were measured. Regarding the analysis of IL-6, each mouse was restrained as described above, and then housed in the starting cage for 6 hours, after which a measurement was performed.
as §3, §1, §4

[9] = test system: phosphorylated (Thr180/Tyr182) P38 MAP kinase; assay: Phosphorylated P38MAP kinase in the adrenal of restraint stress mice (Western blotting); assay type: in vivo, mouse; settings: Western blotting, FIG. 3D
Procedure: as §4
Western blot analysis of IL-18 and phosphorylated P38MAP kinase in adrenal tissue was performed as described below. The adrenal tissue was homogenized in an immunoprecipitation (IP) buffer solution (50 mM Tris pH 7.4, 150 mM NaCl, 0.5% NP-40 and 0.5% sodium deoxycholate) containing a protease inhibitor mixture (manufactured by Roche Diagnostics) using a Polytron homogenizer. The homogenate obtained (100 μg protein) was pre-clarified using protein A/G agarose (Exalpha Biologicals, Inc.), incubated with the anti-mouse IL-18 monoclonal antibody or the anti-phosphorylated (Thr180/Tyr182) P38 MAP kinase antibody and protein A/G agarose (50 μl), and centrifuged (at 13000×g for 25 minutes, 4° C.). The precipitate was boiled, and the adrenal protein was recovered, electrophoresed in 10-20% SDS-polyacrylamide gradient gel, and electrically transferred to a Hybond ECL (manufactured by Amersham) nitrocellulose membrane. The aforementioned membrane was incubated with an antibody (IL-18, phosphorylated (Thr180/Tyr182) P38 MAP kinase, caspase-1 or caspase-11), and the reacted protein was detected using an ECL plus system (manufactured by Amersham biosciences). Procaspase-11 and activated P38 MAP kinase were quantified using a Science Lab 99 image analysis system (manufactured by Fujifilm).

IL-6 = assay: Plasma IL-6 level in stress-loaded wild type mice (ELISA); assay type: in vivo, mouse; settings: stress-loaded WT mice; FIG. 5B
Procedure: as §5, §3
Using IL-18-deficient mice, the relationship between IL-6, which is another stress-related cytokine, and IL-18, was examined. Without stress, IL-6 was undetectable in WT and IL-18 KO, but after 3 hours of stress loading, the IL-6 level was 230 pg/ml in WT and 25 pg/ml in IL-18 KO (FIG. 5A). After liberation from the stress, plasma IL-6 was kept at about 80 pg/ml in WT, but decreased to 5 pg/ml in IL-18 KO (FIG. 5A). Treatment with YVAD-CHO, SOD and anti-IL-18 antibody 70% inhibited the stress-induced increase in plasma IL-6 level in WT (FIG. 5B).

IL-18 precursor = assay: IL-18 (precursor) level in the adrenal of restraint stress mice; assay type: in vivo, mouse; settings: given i.p. during restraint
Procedure: as §5, §1, §4
Western blot analysis of IL-18 and phosphorylated P38MAP kinase in adrenal tissue was performed as described below. […] Procaspase-11 and activated P38 MAP kinase were quantified using a Science Lab 99 image analysis system (manufactured by Fujifilm).

glyoma cell line C6 = settings: cited from earlier work
procaspase-11 = assay: Procaspase-11 protein in the adrenal of restraint stress mice (Western blotting); assay type: in vivo, mouse; settings: given i.p. during restraint
Procedure: as §4, §2

Compound: vitamin E
- activation and release of IL-18 into the medium [1]: suppressed
- activation and release of IL-18 into the medium (Brain astrocytes): suppressed
- activation and release of IL-18 into the medium [2]: suppressed
- activation and release of IL-18 into the medium (Brain microglia): suppressed
- activation and release of IL-18 into the medium [3]: suppressed
- activation and release of IL-18 into the medium (Synovial membrane tissue): suppressed
- activation and release of IL-18 into the medium (Abdominal macrophages): suppressed

Compound: ACTH: Synthetic ACTH (1-24 amino acids) purchased from Peninsula Laboratories Inc. (SYSMEHFRWGKPVGKKRRPVKVYP; Corticotropin; UniProt P01189 138-161, looked up, fragment)
- induction of caspase-1 in the adrenal (caspase-1 [4]): induced
- plasma IL-18 level after ACTH administration (IL-18 [5]; FIG. 1D): rose, but its degree was lower than that with stress loading
- IL-18 level in the adrenal after ACTH administration (IL-18 [5]; FIG. 1E): rose to the same extent as in the case of stress loading

Compound: CC(NC(=O)[C@H](Cc1ccccc1)NC(=O)OCc1ccccc1)C(=O)CF (some centres unmarked) [Z-FA-fmk]
- accumulation of phosphorylated P38MAP kinase in adrenal cortex [6]: did not influence
- stress-induced increase in caspase-1 activity in the adrenal (caspase-1 [7]): suppressed
- stress-induced increase in plasma IL-18 level (IL-18 [8]): suppressed
- phosphorylation of P38MAP kinase in the adrenal [9]: Neither YVAD-CHO nor Z-FA-fmk influenced

Compound: CC(=O)N[C@@H](Cc1ccc(O)cc1)C(=O)N[C@H](C(=O)N[C@@H](C)C(=O)N[C@H](C=O)CC(=O)O)C(C)C [YVAD-CHO, Ac-YVAD-CHO]
- accumulation of phosphorylated P38MAP kinase in adrenal cortex [6]: did not influence
- inhibition of the stress-induced increase in plasma IL-6 level (IL-6): 70%
- stress-induced increase in caspase-1 activity in the adrenal (caspase-1 [7]): suppressed
- IL-18 precursor protein level in the adrenal (IL-18 precursor): did not inhibit
- stress-induced increase in plasma IL-18 level (IL-18 [8]): effectively inhibited
- phosphorylation of P38MAP kinase in the adrenal [9]: Neither YVAD-CHO nor Z-FA-fmk influenced

Compound: C[S+]([O-])c1ccc(-c2nc(-c3ccncc3)c(-c3ccc(F)cc3)[nH]2)cc1 (centres unmarked) [SB203580]
- stress-induced increase in caspase-1 activity in the adrenal (caspase-1 [7]): lower than those in control mice
- activation of caspase-1 subsequent to LPS (glyoma cell line C6): suppressed
- induction of caspase-11 mRNA by LPS (glyoma cell line C6): suppressed
- stress-induced increase in plasma IL-18 level (IL-18 [8]): lower than those in control mice
- stress-induced increase in procaspase-11 protein (procaspase-11): inhibited

Compound: c1ccc2c(c1)[I+]c1ccccc1-2 [DPI, Diphenyleneiodonium chloride]
- stress-induced increase in plasma IL-18 level (IL-18 [8]): suppressed
